Measured values as given in patent US20260224549A1, “COMPOUNDS, COMPOSITIONS, AND METHODS FOR TREATING, AMELIORATING, AND/OR PREVENTING PAIN” (priority 2023, published 2026).
“And” between values parts separate entries of the source, which are not always exact repeats. Identical values can stand only once.

Columns and labels:
in vivo = conditions: dog, in vivo
From the text: (§1) The chosen dose can be higher, as long as within the pharmacological range.

dog = experiment: in vivo
From the text: as §1

clinical = conditions: for CL/F (apparent clearance), Mean / Tlast (time of last measurable concentration), Median / Tlast, Max / Tlast, Min / Tmax, Min / Tmax, Max / AUC(0-t): single oral dose, N = 6; for CL/F (apparent clearance), Mean / Tlast (time of last measurable concentration), Median / Tlast, Max / Tlast, Min / Tmax, Min / Tmax, Max / Tmax / half-life / Vd/F / AUC(0-inf) / Cmax / AUC(0-t): plasma; for Tmax / half-life / Vd/F / AUC(0-inf) / Cmax / AUC(0-t): human; for AUC(0-t): Mean
From the text: The study comprised a single ascending dose (SAD), sequential cohort study, incorporating a food effect (FE) evaluation. Up to 40 subjects were to be studied in 5 cohorts (Cohorts A1 to A5), each cohort consisting of 8 subjects.
Subjects in Cohort A3 participated in 2 treatment periods (once in Fed state, once in Fasted state) separated by a minimum of 6 days. All subjects were to return for a poststudy on Day 5 (+2 days) after their final dose for a final safety assessment.
All doses for Cohorts A1, A2, A4, and A5 were administered in the fasted state in the moming of Day 1.
The actual blood sampling dates and times relative to dosing time were listed by subject and nominal sampling time, with time deviation calculated, for all subjects with available plasma concentration data.
For PK concentration data, the number of non-missing values, number of below limit of quantification (BLQ) values, arithmetic mean, standard deviation, median, minimum, maximum, coefficient of variation (CV %), geometric mean and geometric coefficient of variation (geo CV %) values was presented.
For PK parameter data, the number of non-missing values, arithmetic mean, standard deviation, median, minimum, and maximum values were presented.

human μ-opioid receptor = conditions: G-protein signaling over β-arrestin signaling
From the text: Applying ^19F NMR, one can measure the quantity of G-protein signaling conformation, as well as that of β-arrestin signaling conformation, of the μ-opioid receptor as induced by an agonist.

rats = conditions: exposures far above the ED50 in rats
[1] = not given; remark: listed apart in the source

CN(C)C[C@H]1CN(CCc2ccsc2)CC[C@]1(O)c1cccc(C(N)=O)c1 [Compound I, 3-(3S, 4R)-3-((dimethylamino)methyl)-4-hydroxy-1-(2-(thiophen-3-yl)ethyl)piperidin-4-yl-benzamide]
NOAEL (in vivo): 60 mg/kg/day and 33.3 mg/kg
NOAEL HED for 50 kg subject (dog): 1665 mg
CL/F (apparent clearance), Mean (clinical; 20 mg DS (Fasted)): 1130 L/h
Tlast (time of last measurable concentration), Median (clinical; 20 mg DS (Fasted)): 4.00 h
Tlast, Max (clinical; 20 mg DS (Fasted)): 4.03 h
Tlast, Min (clinical; 20 mg DS (Fasted)): 3.50 h
Tmax, Min (clinical; 20 mg DS (Fasted)): 0.500 h
CL/F (clinical; 20 mg fasted): 1130 L/h
mean concentrations measurable through (clinical; 20 mg fasted): 3.5 h
CL/F (apparent clearance), Mean (clinical; 60 mg DS (Fasted)): 937 L/h
Tlast (time of last measurable concentration), Median (clinical; 60 mg DS (Fasted)): 12.0 h
Tlast, Max (clinical; 60 mg DS (Fasted)): 24.0 h
Tlast, Min (clinical; 60 mg DS (Fasted)): 6.00 h
Tmax, Max (clinical; 60 mg DS (Fasted)): 3.02 h
CL/F (clinical; 60 mg fasted): 937 L/h
mean concentrations measurable through (clinical; 60 mg fasted): 8 h
CL/F (apparent clearance), Mean (clinical; 120 mg DS (Fasted)): 541 L/h
Tlast (time of last measurable concentration), Median (clinical; 120 mg DS (Fasted)): 36.0 h
Tlast, Max (clinical; 120 mg DS (Fasted)): 48.0 h
Tlast, Min (clinical; 120 mg DS (Fasted)): 16.0 h
Tmax, Max (clinical; 120 mg DS (Fasted)): 3.00 h
mean concentrations measurable through (clinical; 120 mg fasted): 36 h
CL/F (apparent clearance), Mean (clinical; 200 mg DS (Fasted)): 452 L/h
Tlast (time of last measurable concentration), Median (clinical; 200 mg DS (Fasted)): 48.0 h
Tlast, Max (clinical; 200 mg DS (Fasted)): 48.1 h
Tlast, Min (clinical; 200 mg DS (Fasted)): 36.0 h
Tmax, Max (clinical; 200 mg DS (Fasted)): 2.02 h
Tmax, Min (clinical; 200 mg DS (Fasted)): 1.00 h
mean concentrations measurable through (clinical; 200 mg fasted): 36 h
CL/F (apparent clearance), Mean (clinical; 400 mg DS (Fasted)): 500 L/h
Tlast (time of last measurable concentration), Median (clinical; 400 mg DS (Fasted)): 48.0 h
Tlast, Max (clinical; 400 mg DS (Fasted)): 48.0 h
Tlast, Min (clinical; 400 mg DS (Fasted)): 48.0 h
Tmax, Max (clinical; 400 mg DS (Fasted)): 2.02 h
Tmax, Min (clinical; 400 mg DS (Fasted)): 1.00 h
mean concentrations measurable through (clinical; 400 mg fasted): 48 h
Tmax (clinical; oral): 1.5 to 2.5 h
half-life (clinical; oral): 29.4 to 31.4 h
Vd/F (clinical; oral, 20 mg): 1380 L
half-life (clinical; oral, 20 mg): 1.05 h
Vd/F (clinical; oral, 60 mg): 6790 L
half-life (clinical; oral, 60 mg): 7.89 h
Vd/F (clinical; oral, 120 mg): 12300 L
Vd/F (clinical; oral, 200 mg): 18100 L
Vd/F (clinical; oral, 400 mg): 20400 L
AUC(0-inf) (clinical; po, 20 mg): 0.0184 µg·h/mL
Cmax (clinical; po, 20 mg): 0.00969 µg/mL
Tmax (clinical; po, 20 mg): 2.5 h
Vd/F (clinical; po, 20 mg): 1380 L
half-life (clinical; po, 20 mg): 1.05 h
AUC(0-t) (clinical; po, 20 mg, AUC0-last (zero to 24 hours postdose), 20 mg DS (Fasted)): 0.0165 µg·h/mL
AUC(0-t) (clinical; po, 20 mg, AUC0-t (zero to the last quantifiable concentration), 20 mg DS (Fasted)): 0.0139 µg·h/mL
AUC(0-inf) (clinical; po, 60 mg): 0.0798 µg·h/mL
Cmax (clinical; po, 60 mg): 0.0517 µg/mL
Tmax (clinical; po, 60 mg): 2.25 h
Vd/F (clinical; po, 60 mg): 6790 L
half-life (clinical; po, 60 mg): 7.89 h
AUC(0-t) (clinical; po, 60 mg, AUC0-last (zero to 24 hours postdose), 60 mg DS (Fasted)): 0.0716 µg·h/mL
AUC(0-t) (clinical; po, 60 mg, AUC0-t (zero to the last quantifiable concentration), 60 mg DS (Fasted)): 0.0671 µg·h/mL
AUC(0-inf) (clinical; po, 120 mg): 0.245 µg·h/mL
Cmax (clinical; po, 120 mg): 0.0985 µg/mL
Tmax (clinical; po, 120 mg): 2.28 h
Vd/F (clinical; po, 120 mg): 12300 L
half-life (clinical; po, 120 mg): 31.4 h
AUC(0-t) (clinical; po, 120 mg, AUC0-last (zero to 24 hours postdose), 120 mg DS (Fasted)): 0.211 µg·h/mL
AUC(0-t) (clinical; po, 120 mg, AUC0-t (zero to the last quantifiable concentration), 120 mg DS (Fasted)): 0.231 µg·h/mL
AUC(0-inf) (clinical; po, 200 mg): 0.446 µg·h/mL
Cmax (clinical; po, 200 mg): 0.22 µg/mL
Tmax (clinical; po, 200 mg): 2 h
Vd/F (clinical; po, 200 mg): 18100 L
half-life (clinical; po, 200 mg): 29.4 h
AUC(0-t) (clinical; po, 200 mg, AUC0-last (zero to 24 hours postdose), 200 mg DS (Fasted)): 0.346 µg·h/mL
AUC(0-t) (clinical; po, 200 mg, AUC0-t (zero to the last quantifiable concentration), 200 mg DS (Fasted)): 0.381 µg·h/mL
AUC(0-inf) (clinical; po, 400 mg): 0.832 µg·h/mL
Cmax (clinical; po, 400 mg): 0.318 µg/mL
Tmax (clinical; po, 400 mg): 1.5 h
Vd/F (clinical; po, 400 mg): 20400 L
half-life (clinical; po, 400 mg): 32.1 h
AUC(0-t) (clinical; po, 400 mg, AUC0-last (zero to 24 hours postdose), 400 mg DS (Fasted)): 0.698 µg·h/mL
AUC(0-t) (clinical; po, 400 mg, AUC0-t (zero to the last quantifiable concentration), 400 mg DS (Fasted)): 0.794 µg·h/mL
signaling pathway selectivity (human μ-opioid receptor): extremely cell-signaling-pathway-selective μ-opioid agonist
abuse liability (Conditioned Place Preference, Drug Self-Administration, Drug Discrimination): no abuse liability
Withdrawal symptoms (preclinical model): only minimal Withdrawal symptoms
respiratory depression or other opiate-based adverse effects (rats): no respiratory depression or other opiate-based adverse effects
opiate-associated effects ([1]; single dose 20-400 mg): no system opiate-associated effects noted
tolerability ([1]; single dose ranging from 20 mg up to 400 mg, healthy subjects): well-tolerated
